US4382892A, “Benzoxazine derivatives” (Daiichi Seiyaku Co., Ltd., priority 1980, dated 1983)
In brackets after ≈: the same amount, converted by molar mass.

What was measured:
Proteus mirabilis, 1287 [1] = assay: Antibacterial activity in vitro, MIC (Table 2); format: cell-based; conditions: MullerHinton Bouillon, 10^6/ml, 37° C., 18 hours, read-out: Minimum Inhibitory Concentration (MIC)
Procedure: (§1) *Determined in MullerHinton Bouillon, 10^6 /ml of bacteria were seede
(§2) and incubated at 37° C. for 18 hours.

[2] = system: Pseudomonas aeruginosa, 2063; assay: Antibacterial activity in vitro, MIC (Table 2); format: cell-based; conditions: MullerHinton Bouillon, 10^6/ml, 37° C., 18 hours, read-out: Minimum Inhibitory Concentration (MIC)
Procedure: as §1, §2

Escherichia coli NIHJ [3] = assay: Antibacterial activity in vitro, MIC (Table 2); format: cell-based; conditions: MullerHinton Bouillon, 10^6/ml, 37° C., 18 hours, read-out: Minimum Inhibitory Concentration (MIC)
Procedure: as §1, §2

[4] = system: Pseudomonas sepacia, II D 5132; assay: Antibacterial activity in vitro, MIC (Table 2); format: cell-based; conditions: IID5132, MullerHinton Bouillon, 10^6/ml, 37° C., 18 hours, read-out: Minimum Inhibitory Concentration (MIC)
Procedure: as §1, §2

[5] = system: Bacillus subtilis, ATCC 6633; assay: Antibacterial activity in vitro, MIC (Table 2); format: cell-based; conditions: ATCC6633, MullerHinton Bouillon, 10^6/ml, 37° C., 18 hours, read-out: Minimum Inhibitory Concentration (MIC)
Procedure: as §1, §2

[6] = system: Staphylococcus aureus, 209 P; assay: Antibacterial activity in vitro, MIC (Table 2); format: cell-based; conditions: MullerHinton Bouillon, 10^6/ml, 37° C., 18 hours, read-out: Minimum Inhibitory Concentration (MIC)
Procedure: as §1, §2

[7] = system: Serratia marcescens, 13001; assay: Antibacterial activity in vitro, MIC (Table 2); format: cell-based; conditions: MullerHinton Bouillon, 10^6/ml, 37° C., 18 hours, read-out: Minimum Inhibitory Concentration (MIC)
Procedure: as §1, §2

Proteus vulgaris, 3167 [8] = assay: Antibacterial activity in vitro, MIC (Table 2); format: cell-based; conditions: MullerHinton Bouillon, 10^6/ml, 37° C., 18 hours, read-out: Minimum Inhibitory Concentration (MIC)
Procedure: as §1, §2

[9] = system: Shigella flexneri 2a, 5503; assay: Antibacterial activity in vitro, MIC (Table 2); format: cell-based; conditions: MullerHinton Bouillon, 10^6/ml, 37° C., 18 hours, read-out: Minimum Inhibitory Concentration (MIC)
Procedure: as §1, §2

[10] = system: Enterobacter cloacae, 12001; assay: Antibacterial activity in vitro, MIC (Table 2); format: cell-based; conditions: MullerHinton Bouillon, 10^6/ml, 37° C., 18 hours, read-out: Minimum Inhibitory Concentration (MIC)
Procedure: as §1, §2

[11] = system: Streptococcus pyogenes, G-36; assay: Antibacterial activity in vitro, MIC (Table 2); format: cell-based; conditions: G36, MullerHinton Bouillon, 10^6/ml, 37° C., 18 hours, read-out: Minimum Inhibitory Concentration (MIC)
Procedure: as §1, §2

[12] = system: Klebsiella pneumoniae, 501; assay: Antibacterial activity in vitro, MIC (Table 2); format: cell-based; conditions: MullerHinton Bouillon, 10^6/ml, 37° C., 18 hours, read-out: Minimum Inhibitory Concentration (MIC)
Procedure: as §1, §2

mice = mice (i.v.)
in vivo = conditions: mouse, iv
Proteus mirabilis, 1287 [13] = assay: Antibacterial activity in vitro, MIC (Table 1); format: cell-based; conditions: dilution method on plate culture (heart infusion agar), 10^6/ml, 37° C., 18 hours, read-out: Minimum Inhibitory Concentration (MIC)
Procedure: (§3) *Determined by the standard method of the Japan Society of Chemotherapy:
(§4) dilution method on plate culture (heart infusion agar culture), 10^6
(§5) /ml of bacteria were seeded and incubated at 37° C. for 18 hours.

[14] = system: Pseudomonas aeruginosa, 2063; assay: Antibacterial activity in vitro, MIC (Table 1); format: cell-based; conditions: dilution method on plate culture (heart infusion agar), 10^6/ml, 37° C., 18 hours, read-out: Minimum Inhibitory Concentration (MIC)
Procedure: as §3, §4, §5

Escherichia coli NIHJ [15] = assay: Antibacterial activity in vitro, MIC (Table 1); format: cell-based; conditions: read-out: Minimum Inhibitory Concentration (MIC)
Procedure: as §3, §4, §5

[16] = system: Bacillus subtilis, ATCC 6633; assay: Antibacterial activity in vitro, MIC (Table 1); format: cell-based; conditions: ATCC6633, dilution method on plate culture (heart infusion agar), 10^6/ml, 37° C., 18 hours, read-out: Minimum Inhibitory Concentration (MIC)
Procedure: as §3, §4, §5

[17] = system: Staphylococcus aureus, 209 P; assay: Antibacterial activity in vitro, MIC (Table 1); format: cell-based; conditions: dilution method on plate culture (heart infusion agar), 10^6/ml, 37° C., 18 hours, read-out: Minimum Inhibitory Concentration (MIC)
Procedure: as §3, §4, §5

[18] = system: Serratia marcescens, 13001; assay: Antibacterial activity in vitro, MIC (Table 1); format: cell-based; conditions: dilution method on plate culture (heart infusion agar), 10^6/ml, 37° C., 18 hours, read-out: Minimum Inhibitory Concentration (MIC)
Procedure: as §3, §4, §5

Proteus vulgaris, 3167 [19] = assay: Antibacterial activity in vitro, MIC (Table 1); format: cell-based; conditions: read-out: Minimum Inhibitory Concentration (MIC)
Procedure: as §3, §4, §5

[20] = system: Shigella flexneri 2a, 5503; assay: Antibacterial activity in vitro, MIC (Table 1); format: cell-based; conditions: dilution method on plate culture (heart infusion agar), 10^6/ml, 37° C., 18 hours, read-out: Minimum Inhibitory Concentration (MIC)
Procedure: as §3, §4, §5

[21] = system: Enterobacter cloacae, 12001; assay: Antibacterial activity in vitro, MIC (Table 1); format: cell-based; conditions: read-out: Minimum Inhibitory Concentration (MIC)
Procedure: as §3, §4, §5

[22] = system: Streptococcus pyogenes, G-36; assay: Antibacterial activity in vitro, MIC (Table 1); format: cell-based; conditions: G36, dilution method on plate culture (heart infusion agar), 10^6/ml, 37° C., 18 hours, read-out: Minimum Inhibitory Concentration (MIC)
Procedure: as §3, §4, §5

[23] = system: Klebsiella pneumoniae, 501; assay: Antibacterial activity in vitro, MIC (Table 1); format: cell-based; conditions: dilution method on plate culture (heart infusion agar), 10^6/ml, 37° C., 18 hours, read-out: Minimum Inhibitory Concentration (MIC)
Procedure: as §3, §4, §5

[24] = system: Pseudomonas sepacia, II D 1340; assay: Antibacterial activity in vitro, MIC (Table 1); format: cell-based; conditions: IID1340, dilution method on plate culture (heart infusion agar), 10^6/ml, 37° C., 18 hours, read-out: Minimum Inhibitory Concentration (MIC)
Procedure: as §3, §4, §5

[25] = system: gram-negative and gram-positive bacteria (test organisms); assay: Antibacterial activity (in vitro), comparison in words; format: cell-based; conditions: compounds of this invention versus known compounds / PPA
Procedure: as §3, §4, §5, §1, §2

[26] = Escherichia coli NIHJ, dilution method on plate culture (heart infusion agar), 10^6/ml, 37° C., 18 hours
[27] = Proteus vulgaris, 3167, dilution method on plate culture (heart infusion agar), 10^6/ml, 37° C., 18 hours
[28] = Enterobacter cloacae, 12001, dilution method on plate culture (heart infusion agar), 10^6/ml, 37° C., 18 hours

Row | Compound | MIC (Proteus mirabilis, 1287 [1]) | MIC [2] | MIC (Escherichia coli NIHJ [3]) | MIC [4] | MIC [5] | MIC [6] | MIC [7] | MIC (Proteus vulgaris, 3167 [8]) | MIC [9] | MIC (Proteus mirabilis, 1287 [13]) | MIC [14] | MIC (Escherichia coli NIHJ [15]; [26]) | MIC [16] | MIC [17] | MIC [18] | MIC (Proteus vulgaris, 3167 [19]; [27]) | MIC [20] | MIC [21, 28] | MIC [22] | MIC [23] | also measured
1 | CC1COc2c(N3CCN(C)CC3)c(Cl)cc3c(=O)c(C(=O)O)cn1c23 (stereo not drawn) [Id, 9-chloro-3-methyl-10-(4-methyl-1-piperazinyl)-7-oxo-2,3-dihydro-7H-pyrido[1,2,3-de][1,4]benzoxazine-6-carboxylic acid] | 0.1 µg/mL (≈ 0.265 µM) | 0.78 µg/mL (≈ 2.06 µM) | ≤ 0.05 µg/mL | 6.25 µg/mL (≈ 16.5 µM) | 0.1 µg/mL (≈ 0.265 µM) | 0.2 µg/mL (≈ 0.529 µM) | 0.1 µg/mL (≈ 0.265 µM) | ≤ 0.05 µg/mL | ≤ 0.05 µg/mL |  |  |  |  |  |  |  |  |  |  |  | MIC [10]: ≤ 0.05 µg/mL; MIC [11]: 12.5 µg/mL (≈ 33.1 µM); MIC [12]: 0.2 µg/mL (≈ 0.529 µM)
2 | CC1CCc2c(N3CCN(C)CC3)c(F)cc3c(=O)c(C(=O)O)cn1c23 (stereo not drawn) [8-(4-methyl-1-piperazinyl)-9-fluoro-5-methyl-6,7-dihydro-1-oxo-1H,5H-benz[ij]quinolizine-2-carboxylic acid, reference compound] |  |  |  |  |  |  |  |  |  |  |  |  |  |  |  |  |  |  |  |  | toxicity (in words) (mice): comparatively high toxicity; LD50 (in vivo): 135 mg/kg
3 | CC1COc2c(N3CCC(O)C3)c(F)cc3c(=O)c(C(=O)O)cn1c23 (stereo not drawn) [Ic, 9-fluoro-10-(3-hydroxy-1-pyrrolidinyl)-3-methyl-7-oxo-2,3-dihydro-7H-pyrido[1,2,3-de][1,4]benzoxazine-6-carboxylic acid] |  |  |  |  |  |  |  |  |  | 0.1 µg/mL (≈ 0.287 µM) | 1.56 µg/mL (≈ 4.48 µM) | 0.05 µg/mL (≈ 0.144 µM) | 0.05 µg/mL (≈ 0.144 µM) | 0.1 µg/mL (≈ 0.287 µM) | 0.78 µg/mL (≈ 2.24 µM) | 0.1 µg/mL (≈ 0.287 µM) | 0.1 µg/mL (≈ 0.287 µM) | 0.2 µg/mL (≈ 0.574 µM) | 0.78 µg/mL (≈ 2.24 µM) | 0.78 µg/mL (≈ 2.24 µM) | 
4 | CCn1cc(C(=O)O)c(=O)c2cnc(N3CCNCC3)nc21 [PPA, 8-ethyl-5,8-dihydro-5-oxo-2-(1-piperazinyl)-pyrido[2,3-d]pyrimidine-6-carboxylic acid, reference compound] |  |  |  |  |  |  |  |  |  | 6.25 µg/mL (≈ 20.6 µM) | 25 µg/mL (≈ 82.4 µM) |  | 6.25 µg/mL (≈ 20.6 µM) | 12.5 µg/mL (≈ 41.2 µM) | 6.25 µg/mL (≈ 20.6 µM) |  | 1.56 µg/mL (≈ 5.14 µM) |  | > 100 µg/mL | 6.25 µg/mL (≈ 20.6 µM) | MIC (Escherichia coli NIHJ [15]; Escherichia coli, 18 h): 1.56 µg/mL (≈ 5.14 µM); MIC [24]: 100 µg/mL (≈ 330 µM); MIC (Proteus vulgaris, 3167 [19]; Proteus vulgaris, 3167, 18 h): 1.56 µg/mL (≈ 5.14 µM); MIC ([21]; Enterobacter cloacae, 12001, 18 h): 1.56 µg/mL (≈ 5.14 µM); toxicity (in words) (mice): low toxicity; antibacterial activity (in words) [25]: much weaker than the compounds of this invention
5 | CC1COc2c(N3CCNCC3)c(F)cc3c(=O)c(C(=O)O)cn1c23 (stereo not drawn) [Ib, 9-fluoro-3-methyl-7-oxo-10-(1-piperazinyl)-2,3-dihydro-7H-pyrido[1,2,3-de][1,4]benzoxazine-6-carboxylic acid] |  |  |  |  |  |  |  |  |  | 0.1 µg/mL (≈ 0.288 µM) | 0.78 µg/mL (≈ 2.25 µM) | ≤ 0.025 µg/mL | 0.39 µg/mL (≈ 1.12 µM) | 0.39 µg/mL (≈ 1.12 µM) | 0.78 µg/mL (≈ 2.25 µM) | 0.05 µg/mL (≈ 0.144 µM) | 0.05 µg/mL (≈ 0.144 µM) | 0.2 µg/mL (≈ 0.576 µM) | 3.13 µg/mL (≈ 9.01 µM) | 0.39 µg/mL (≈ 1.12 µM) | MIC [24]: 12.5 µg/mL (≈ 36 µM)
6 | CC1COc2c(N3CCN(C)CC3)c(F)cc3c(=O)c(C(=O)O)cn1c23 (stereo not drawn) [Ia, 9-fluoro-10-(4-methyl-1-piperazinyl)-3-methyl-7-oxo-2,3-dihydro-7H-pyrido[1,2,3-de][1,4]benzoxazine-6-carboxylic acid] | 0.1 µg/mL (≈ 0.277 µM) | 0.78 µg/mL (≈ 2.16 µM) | ≤ 0.05 µg/mL | 12.5 µg/mL (≈ 34.6 µM) | 0.1 µg/mL (≈ 0.277 µM) | 0.39 µg/mL (≈ 1.08 µM) | 0.1 µg/mL (≈ 0.277 µM) | ≤ 0.05 µg/mL | ≤ 0.05 µg/mL | 0.1 µg/mL (≈ 0.277 µM) | 1.56 µg/mL (≈ 4.32 µM) | ≤ 0.025 µg/mL | 0.2 µg/mL (≈ 0.553 µM) | 0.39 µg/mL (≈ 1.08 µM) | 0.2 µg/mL (≈ 0.553 µM) | 0.05 µg/mL (≈ 0.138 µM) | 0.05 µg/mL (≈ 0.138 µM) | 0.1 µg/mL (≈ 0.277 µM) | 1.56 µg/mL (≈ 4.32 µM) | 0.2 µg/mL (≈ 0.553 µM) | LD50 (in vivo): 380 mg/kg; MIC [10]: 0.1 µg/mL (≈ 0.277 µM); MIC [11]: 1.56 µg/mL (≈ 4.32 µM); MIC [12]: 0.39 µg/mL (≈ 1.08 µM)
